Entries after “also recorded” stand apart in the source; their conditions may differ.
Columns and labels:
human NPP1 = molecular target: T1, human NPP1 (Homo sapiens, UniProt P22413); test: Inhibition of NPP1, ATP as substrate; format: biochemical; conditions: analogue 100 μM, ATP 100 μM
T1 sequence (P22413 1-925): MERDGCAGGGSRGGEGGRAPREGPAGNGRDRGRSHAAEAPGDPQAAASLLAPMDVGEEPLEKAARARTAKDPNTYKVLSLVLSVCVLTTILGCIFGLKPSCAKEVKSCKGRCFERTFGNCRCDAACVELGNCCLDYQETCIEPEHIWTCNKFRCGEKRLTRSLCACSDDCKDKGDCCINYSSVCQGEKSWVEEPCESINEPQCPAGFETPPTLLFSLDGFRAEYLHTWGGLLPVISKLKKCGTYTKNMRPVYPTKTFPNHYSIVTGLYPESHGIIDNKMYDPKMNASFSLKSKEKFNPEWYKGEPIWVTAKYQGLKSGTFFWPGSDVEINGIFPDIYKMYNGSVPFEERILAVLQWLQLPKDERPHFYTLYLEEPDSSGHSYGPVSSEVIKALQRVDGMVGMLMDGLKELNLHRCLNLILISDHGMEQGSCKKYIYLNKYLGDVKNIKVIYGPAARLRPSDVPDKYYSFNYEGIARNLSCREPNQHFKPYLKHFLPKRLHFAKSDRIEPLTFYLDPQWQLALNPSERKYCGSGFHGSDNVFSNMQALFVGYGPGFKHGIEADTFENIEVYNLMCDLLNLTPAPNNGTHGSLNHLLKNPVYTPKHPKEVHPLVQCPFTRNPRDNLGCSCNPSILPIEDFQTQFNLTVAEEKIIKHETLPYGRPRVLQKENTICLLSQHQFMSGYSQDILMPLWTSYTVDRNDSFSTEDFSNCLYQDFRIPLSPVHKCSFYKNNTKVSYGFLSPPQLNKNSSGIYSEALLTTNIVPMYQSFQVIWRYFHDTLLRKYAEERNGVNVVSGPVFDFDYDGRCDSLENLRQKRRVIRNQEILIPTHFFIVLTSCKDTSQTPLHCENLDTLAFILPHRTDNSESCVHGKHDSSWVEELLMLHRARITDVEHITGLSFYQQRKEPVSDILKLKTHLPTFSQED

P2Y2 receptor = P2Y2 receptor (Homo sapiens, UniProt P41231); test: [Ca2+]i response in 1321N1 astrocytoma cells expressing GFP-P2Y2 receptor; format: cell-based; conditions: for agonist activity at P2Y2R: 100 μM; for inhibition of the typical response to UTP at P2Y2R: 1321N1 cells (data not shown)
human NTPDase1 [1] = molecular target: T2, human NTPDase1 (Homo sapiens, UniProt P49961); conditions: analogue 100 μM as substrate; activity with 100 μM ATP set as 100%
T2 sequence (P49961 1-510): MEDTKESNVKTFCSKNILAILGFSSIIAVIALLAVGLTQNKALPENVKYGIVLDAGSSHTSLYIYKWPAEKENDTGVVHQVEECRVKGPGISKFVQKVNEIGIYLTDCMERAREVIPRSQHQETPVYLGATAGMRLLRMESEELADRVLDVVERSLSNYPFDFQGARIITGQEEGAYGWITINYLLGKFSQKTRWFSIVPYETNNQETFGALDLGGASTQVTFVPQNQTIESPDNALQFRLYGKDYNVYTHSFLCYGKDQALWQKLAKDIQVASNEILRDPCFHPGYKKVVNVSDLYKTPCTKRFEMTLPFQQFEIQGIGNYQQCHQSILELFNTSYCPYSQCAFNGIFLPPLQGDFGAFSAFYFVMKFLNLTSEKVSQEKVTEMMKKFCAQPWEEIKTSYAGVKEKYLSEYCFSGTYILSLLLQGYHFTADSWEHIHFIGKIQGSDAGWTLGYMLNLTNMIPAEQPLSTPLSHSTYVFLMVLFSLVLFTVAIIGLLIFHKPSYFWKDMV

P2Y11 receptor = molecular target: T3, P2Y11 receptor (Homo sapiens, UniProt Q96G91); test: [Ca2+]i elevation in 1321N1 astrocytoma cells expressing GFP-P2Y11 receptor; format: cell-based; conditions: 1321N1 cells; nr = no response up to 10 μM
T3 sequence (Q96G91 1-374): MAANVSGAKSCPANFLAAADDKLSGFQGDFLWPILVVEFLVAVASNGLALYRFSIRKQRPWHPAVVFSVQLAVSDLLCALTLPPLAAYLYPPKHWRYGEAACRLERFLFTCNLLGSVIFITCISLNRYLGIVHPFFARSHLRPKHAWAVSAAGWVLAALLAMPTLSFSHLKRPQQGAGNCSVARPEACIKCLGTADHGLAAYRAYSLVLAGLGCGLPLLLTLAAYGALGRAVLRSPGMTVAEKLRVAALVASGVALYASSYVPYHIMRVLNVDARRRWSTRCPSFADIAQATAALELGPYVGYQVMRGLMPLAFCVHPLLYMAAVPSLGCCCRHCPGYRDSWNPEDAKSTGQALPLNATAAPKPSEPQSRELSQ

human NTPDase1,2,3,8 = test: Inhibition of NTPDase activity, text statements pooled over NTPDase1,2,3,8; format: biochemical; conditions: analogue 100 μM, pooled over four NTPDases
human NTPDase8 = molecular target: T4, human NTPDase8 (Homo sapiens, UniProt Q5MY95); conditions: analogue 100 μM as substrate; activity with 100 μM ATP set as 100%
T4 sequence (Q5MY95 1-495): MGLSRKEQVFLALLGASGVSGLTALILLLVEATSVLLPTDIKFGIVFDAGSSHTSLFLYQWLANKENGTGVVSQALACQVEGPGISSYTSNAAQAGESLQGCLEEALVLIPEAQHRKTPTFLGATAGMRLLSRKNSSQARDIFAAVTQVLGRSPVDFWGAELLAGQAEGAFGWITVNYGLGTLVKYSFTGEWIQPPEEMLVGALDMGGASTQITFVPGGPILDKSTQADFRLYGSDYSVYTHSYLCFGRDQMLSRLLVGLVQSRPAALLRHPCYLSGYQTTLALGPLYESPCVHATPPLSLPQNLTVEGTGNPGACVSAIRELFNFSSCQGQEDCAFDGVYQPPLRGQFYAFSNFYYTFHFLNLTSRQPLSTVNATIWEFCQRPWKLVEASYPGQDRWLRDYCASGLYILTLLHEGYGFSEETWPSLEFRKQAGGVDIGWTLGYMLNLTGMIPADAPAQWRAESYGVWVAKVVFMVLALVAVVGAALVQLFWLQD

human NTPDase1 [2] = molecular target: T2, human NTPDase1; test: Inhibition of NTPDase1 activity; format: biochemical; conditions: analogue 100 μM, substrate ATP 100 μM

Sequence of P2Y2 receptor (P41231 whole entry): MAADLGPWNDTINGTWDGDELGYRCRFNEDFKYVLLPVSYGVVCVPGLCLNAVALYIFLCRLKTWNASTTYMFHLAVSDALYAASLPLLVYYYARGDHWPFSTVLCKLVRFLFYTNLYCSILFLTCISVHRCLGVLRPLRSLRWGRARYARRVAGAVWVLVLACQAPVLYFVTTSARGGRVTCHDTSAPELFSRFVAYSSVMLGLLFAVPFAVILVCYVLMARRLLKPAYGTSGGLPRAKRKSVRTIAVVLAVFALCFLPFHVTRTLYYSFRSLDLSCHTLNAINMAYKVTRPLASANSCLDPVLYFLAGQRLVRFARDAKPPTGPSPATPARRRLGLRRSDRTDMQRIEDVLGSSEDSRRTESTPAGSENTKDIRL

## Nc1ncnc2c1ncn2[C@@H]1O[C@H](CO[P@](O)(=S)OP(=O)(O)C(Cl)(Cl)P(=O)(O)O)[C@@H](O)[C@H]1O [2a]
Human NPP1
  inhibition of ATP hydrolysis by NPP1: about 90%
P2Y2 receptor
  agonist activity at P2Y2R: no activity
  inhibition of the typical response to UTP at P2Y2R: did not inhibit
Human NTPDase1 [1]
  relative activity (%) ± SD of ATP hydrolysis, NTPDase1: 5.3 ± 0.2%
P2Y11 receptor
  EC50 ± SEM (μM), [Ca^2+]i elevation, P2Y11: not agonists; also recorded: inactive; also recorded: not active, nr ^c
Human NTPDase1,2,3,8
  inhibition of ATP hydrolysis by NTPDase1,2,3,8: did not interfere
Human NTPDase8
  relative activity (%) ± SD of ATP hydrolysis, NTPDase8: 4.3 ± 0.1%

## Nc1ncnc2c1ncn2[C@@H]1O[C@H](COP(=O)(O)CP(=O)(O)OP(O)(O)=S)[C@@H](O)[C@H]1O [compound 3]
Human NPP1
  inhibition of ATP hydrolysis by NPP1: about 90%
P2Y2 receptor
  agonist activity at P2Y2R: no activity
  inhibition of the typical response to UTP at P2Y2R: did not inhibit
Human NTPDase1 [2]
  inhibition (%) ± SD, human NTPDase1: 60%
Human NTPDase1 [1]
  relative activity (%) ± SD of ATP hydrolysis, NTPDase1: 5.3 ± 0.2%
Human NTPDase8
  relative activity (%) ± SD of ATP hydrolysis, NTPDase8: 5.2 ± 0.2%
